Legend:
Lepomis macrochirus = conditions: acute; duration: 96 hours; mortality
Daphnia magna = conditions: chronic/long-term; duration: 21 days; reproduction
Apis mellifera = conditions: acute, mortality
Folsomia candida = conditions: chronic/long-term; duration: 28 days
Oncorhynchus mykiss = conditions: chronic/long-term; duration: 88 days; other
Canidae = conditions: chronic; duration: 53 weeks; oral; Dog Other; organ weight
Hypoaspis aculeifer = conditions: chronic/long-term; duration: 14 days

**Q.** How did the LC50 (Tagia sp.; acute, duration: 14 days, mortality) turn out when `Cc1ccc(C(C)NC(=O)[C@@H](NC(=O)OC(C)C)C(C)C)cc1` (stereo not given in full) [Iprovalicarb] was run?
**A.** Its LC50 is greater than 500 mg/kg.

**Q.** What about the NOEC (Tagia sp.; chronic/long-term, duration: 8 weeks) of the same compound?
**A.** The NOEC was no less than 64 mg/kg.

**Q.** And the LC50 (Lepomis macrochirus)?
**A.** Its LC50 is greater than 20.7 µg/mL.

**Q.** And the NOEC (Daphnia magna)?
**A.** The NOEC was 1.89 mg/L.

**Q.** And the LD50 (Rattus norvegicus; acute, oral, mortality)?
**A.** The LD50 was greater than 5000 mg/kg-day.

**Q.** What about the NOAEL (Rattus norvegicus; chronic) of the same compound?
**A.** Its NOAEL is 146 mg/kg-day.

**Q.** And the LD50 (Apis mellifera; dermal)?
**A.** Its LD50 is greater than 200 µg/piece.

**Q.** What about the LD50 (Apis mellifera; oral, unspecified) of the same compound?
**A.** Its LD50 is greater than 199 µg/piece.

**Q.** What about the NOEC (Folsomia candida) of the same compound?
**A.** The NOEC was no less than 1000 mg/kg.

**Q.** What about the NOEC (Oncorhynchus mykiss) of the same compound?
**A.** Its NOEC is 5 mg/L.

**Q.** What about the LD50 (Colinus virginianus; acute, oral) of the same compound?
**A.** The LD50 was greater than 2000 mg/kg-day.

**Q.** And the LC50 (Colinus virginianus; acute, oral, diet)?
**A.** The LC50 was greater than 1350 mg/kg-day.

**Q.** What about the NOAEL (Colinus virginianus; reproduction developmental) of the same compound?
**A.** Its NOAEL is 161 mg/kg-day.

**Q.** And the LOAEL (Canidae)?
**A.** The LOAEL was 3 mg/kg-day.

**Q.** What about the NOEC (Hypoaspis aculeifer) of the same compound?
**A.** Its NOEC is no less than 1000 mg/kg.

Reference: EPA's ToxValDB 9.5 (doi:10.2903/j.efsa.2015.4060)
